# From US20180002400A1, “SHORT PEPTIDE-BASED THERAPEUTIC AGENT AND MEDICINAL COMPOSITION INCLUDING THE SAME FOR INHIBITING ACTIVITIES OF CANCER CELLS” (NATIONAL CHENG KUNG UNIVERSITY, priority 2015, published 2018)
# B1: pPTX3/C: recombinant protein (SEQ ID NO:4) expressed and purified from prokaryotic expression system (E. coli); control group (protein)
# chain: ETAILFPMRSKKIFGSVHPVRPMRLESFSACIWVKATDVLNKTILFSYGTKRNPYEIQLYLSYQSIVFVVGGEENKLVAEAMVSLGRWTHLCGTWNSEEGLTSLWVNGELAATTVEMATGHIVPEGGILQIGQEKNGCCVGGGFDETLAFSGRLTGFNIWDSVLSNEEIRETGGAESCHIRGNIVGWGVTEIQPHGGAQYVS
# modifications: The 180th amino acid to 381th amino acid of Human sapiens PTX3 (pPTX3/C)
# notes: control group
# Assays:
# Format in all cases: cell-based, human
# [1] = tested on: drug-resistant breast cancer MB231R (MBR) cells; assay: Cancer cell invasion (matrigel-coated insert) induced by euPTX3
# lung cancer A549 cell [2] = assay: Drug resistance (CDDP, 5-FU) induced by euPTX3, MTT assay; settings: A549 only co-cultured with euPTX3 2.5 μg/mL vs without euPTX3; FIG. 2B
# Method: (§1) The cell density 1×10^4 cells/well of the breast cancer MB231 cell, the lung cancer A549 cell and the nasopharyngeal cancer HONE1 cell were co-cultured with the short peptides RI37, GI40 and KT44 (10 μg/mL or 225 nM of the short peptide) and the polypeptide euPTX3 (2.5 μg/mL) of Example 1. After 1 week of cultivation, those cancer cells were added with 40 μM of CDDP or 100 μM of 5-FU respectively and cultured for 48 hours. Based on the cell viability of the cells only co-cultured with the polypeptide euPTX3 (2.5 μg/mL) as 100%, the influence of drug resistance of the cancer cells of Example 2 using the short peptides of Example 1 could be determined according to the aforementioned MTT assay.
# breast cancer MB231 cell = assay: as above; settings: MB231 only co-cultured with euPTX3 2.5 μg/mL vs without euPTX3; FIG. 1D
# Method: as §1
# [3] = tested on: nasopharyngeal cancer HONE1 cell; assay: as above; settings: HONE1 only co-cultured with euPTX3 2.5 μg/mL vs without euPTX3; FIG. 3B
# Method: as §1
# lung cancer A549 cell [4] = assay: Cancer cell migration (Boyden chamber) induced by euPTX3; settings: A549 only co-cultured with euPTX3 2.5 μg/mL; FIG. 2C left panel
# Method: (§2) The cell density 5×10^4 cells/well of the breast cancer MB231 cell, the lung cancer A549 cell and the nasopharyngeal cancer HONE1 cell were seeded into each upper insert of 24-well plate (containing 8-μm pore insert per well; BD Biosciences) for 19 hours, and each lower well was added with the short peptides RI37, GI40 and KT44 (10 μg/mL or 225 nM of the short peptide) and the polypeptide euPTX3 (2.5 μg/mL) of Example 1, for evaluating the influence of migration of the cancer cell of Example 2 using several short peptides of Example 1.
# (§3) The cell density 5×10^4 cells/well of the breast cancer MB231 cell, the lung cancer A549 cell and the nasopharyngeal cancer HONE1 cell were seeded into each upper insert of Boyden chamber for 3 hours of cultivation.
# (§4) And then, the medium in each upper insert was replaced by serum-free medium, and the medium in each lower well was added with the short peptides RI37, GI40, KT44 and the polypeptide euPTX3 of Example 1. The cells inside each upper insert were wiped with cotton swabs and removed after 16 hours of cultivation. Remaining cells that had migrated to the bottom of the insert membrane were stained by 4′,6-diamidino-2-phenylindole (DAPI; Invitrogen) and calculated under fluorescence microscopy with 200-fold magnification.
# [5] = tested on: nasopharyngeal cancer HONE1 cell; assay: as above; settings: HONE1 only co-cultured with euPTX3 2.5 μg/mL; FIG. 3C left panel
# Method: as §2, §3, §4
# [6] = tested on: drug-resistant breast cancer MB231R (MBR) cells; assay: as above
# Method: [The procedure below names another cell line; the source lists this cell line under the same test.] as §2, §3, §4
# lung cancer A549 cell [7] = assay: Cancer cell invasion (matrigel-coated insert) induced by euPTX3; settings: A549 only co-cultured with euPTX3 2.5 μg/mL; FIG. 2C right panel
# Method: (§5) The cell density 5×10^4 cells/well of the breast cancer MB231 cell, the lung cancer A549 cell and the nasopharyngeal cancer HONE1 cell were seeded into each upper insert of 24-well plate (containing 8-μm pore insert per well; BD Biosciences), the upper insert and the lower well were separated by the polyethelene terephthalate membrane coated with matrigel (purchased from BD Bioscience), and cultured for 3 hours.
# as §4, with “Next,” for “And then,”, “euPTX3 and pPTX3/C” for “euPTX3”, “4′, 6-diamidino-2-phenylindole” for “4′,6-diamidino-2-phenylindole”
# [8] = tested on: nasopharyngeal cancer HONE1 cell; assay: as above; settings: HONE1 only co-cultured with euPTX3 2.5 μg/mL; FIG. 3C right panel
# Method: as §5
# as §4, with “Next,” for “And then,”, “euPTX3 and pPTX3/C” for “euPTX3”, “4′, 6-diamidino-2-phenylindole” for “4′,6-diamidino-2-phenylindole”
Molecule,"invasive cell numbers ([1]; breast cancer cells only co-cultured with euPTX3 2.5 μg/mL, FIG. 1E, 5B right panels)",drug resistance to CDDP or 5-FU (cell viability) (lung cancer A549 cell [2]),drug resistance to CDDP or 5-FU (cell viability) (breast cancer MB231 cell),drug resistance to CDDP or 5-FU (cell viability) [3],migrated cell numbers (lung cancer A549 cell [4]),migrated cell numbers [5],"migrated cell numbers ([6]; breast cancer cells only co-cultured with euPTX3 2.5 μg/mL, FIG. 1E, 5B left panels)",invasive cell numbers (lung cancer A549 cell [7]),invasive cell numbers [8],"invasive cell numbers induced by the polypeptide euPTX3 ([1]; MB231R (MBR), identical molecular number: euPTX3 2.5 μg/mL, RI37 3.7 μg/mL, GI40 4 μg/mL, pPTX3/C 10 μg/mL, FIG. 5B right panel)","migrated cell numbers induced by the polypeptide euPTX3 ([6]; MB231R (MBR), identical molecular number: euPTX3 2.5 μg/mL, RI37 3.7 μg/mL, GI40 4 μg/mL, pPTX3/C 10 μg/mL, FIG. 5B left panel)"
"euPTX3: commercially available PTX3 product (R&D system Inc.), recombinant protein purified from mouse myeloma cells (NS0)",increase invasive cell numbers,increase drug resistance to CDDP or 5-FU,increase drug resistance to CDDP or 5-FU,increase drug resistance to CDDP or 5-FU,increase migrated cell numbers,increase migrated cell numbers,increase migrated cell numbers,increase invasive cell numbers,increase invasive cell numbers,,
B1,,,,,,,,,,can inhibit invasive cell numbers,can inhibit migrated cell numbers
